The values that follow come from publication PMC3853281, “The Strawberry Pathogenesis-related 10 (PR-10) Fra a Proteins Control Flavonoid Biosynthesis by Binding to Metabolic Intermediates” (The Journal of Biological Chemistry, 2013).

One assay concerns the target T1, Fra a 1E (Fragaria x ananassa, UniProt Q256S2).
T1 construct: gene FRAA1E.1; full-length ORF in pETM11, E. coli BL21(DE3); N-terminal His6 cut by TEV, Ala-Met-Ala left at N-terminus; monomer, 18 kDa by SEC-MALLS; residues 2-160 modelled
The experiment in a line: isothermal titration calorimetry. Format: binding. In general terms: Isothermal titration calorimetry measures the heat released or taken up as one component is titrated into another.

The target in another assay is T2, Fra a 2 (Fragaria x ananassa, UniProt D0E0C6).
T2 construct: gene FRAA2; full-length ORF in pETM11, E. coli BL21(DE3); N-terminal His6 cut by TEV, Ala-Met-Ala left at N-terminus; apparent 28 kDa by SEC-MALLS
Put plainly: isothermal titration calorimetry. It counts as binding.

T1 sequence (Q256S2 whole entry, the tested form may be a part): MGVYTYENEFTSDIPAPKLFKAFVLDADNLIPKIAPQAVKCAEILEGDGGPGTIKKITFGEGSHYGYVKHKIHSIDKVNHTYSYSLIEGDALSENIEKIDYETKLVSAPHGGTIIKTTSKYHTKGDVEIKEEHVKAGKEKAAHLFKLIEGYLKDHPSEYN
T2 sequence (D0E0C6 whole entry): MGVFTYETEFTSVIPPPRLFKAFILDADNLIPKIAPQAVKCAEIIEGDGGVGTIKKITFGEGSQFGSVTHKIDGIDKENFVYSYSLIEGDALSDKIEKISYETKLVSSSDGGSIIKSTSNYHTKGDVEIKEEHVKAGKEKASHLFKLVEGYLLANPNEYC

The compound `O=C(O)[C@H]1O[C@@H](Oc2c(-c3ccc(O)c(O)c3)oc3cc(O)cc(O)c3c2=O)[C@H](O)[C@@H](O)[C@@H]1O` [Quercetin-3-O-glucuronide] yielded a Kd at Fra a 1E of 5.3 µM.

Turning to `O=c1c(O)c(-c2cc(O)c(O)c(O)c2)oc2cc(O)cc(O)c12` [myricetin], the affinity at Fra a 2, expressed as Kd, was 19.5 µM.

Usually Kd stands for the concentration at which binding is half-saturated. Read a high Kd as weaker binding.
